Results on 16 molecules are retold here after patent US8106055B2, “Substituted amide compounds” (Gruenenthal GmbH, priority 2007, dated 2012).

One assay has as its target T1, human μ opiate receptor (Homo sapiens, UniProt P35372).
T1 construct: purchased PerkinElmer Life Sciences, Zaventem, Belgium RB-HOM; host or cells: CHO-K1 cells (membrane preparation)
Description: Affinity for the human μ opiate receptor ([3H]-naloxone displacement, CHO-K1 receptor membrane preparation, SPA). As to conditions: 1.5 h, test concentration 1 μM. Format: binding. In outline:
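At 1 μmol/l, compounds were scored for % displacement of 1 nmol/l [3H]-naloxone from CHO-K1-expressed human μ opiate receptor in a homogeneous SPA format (90 min, room temperature).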

The target of assay [1] is T2, human bradykinin 1 receptor (B1R) (Homo sapiens, UniProt P46663).
T2 construct: expressed in transfected cells; host or cells: CHO K1 cells
T2 sequence (P46663 1-353): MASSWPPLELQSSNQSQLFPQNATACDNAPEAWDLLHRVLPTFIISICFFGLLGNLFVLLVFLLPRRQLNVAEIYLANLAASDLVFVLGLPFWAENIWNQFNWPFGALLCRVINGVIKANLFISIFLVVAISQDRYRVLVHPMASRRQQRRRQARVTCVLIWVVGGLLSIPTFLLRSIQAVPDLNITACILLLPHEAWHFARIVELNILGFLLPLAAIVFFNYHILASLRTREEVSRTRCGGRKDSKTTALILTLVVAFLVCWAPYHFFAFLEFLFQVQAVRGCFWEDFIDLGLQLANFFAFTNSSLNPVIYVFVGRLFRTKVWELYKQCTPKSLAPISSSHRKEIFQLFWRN
Kind of assay: Functional investigation on the human bradykinin 1 receptor (B1R), Ca2+ FLIPR assay in CHO K1 hB1R cells. The assay is classed as cell-based. As to conditions: test substance 10 μM; for inhibition at 10 µM: CHO-K1, B1R antagonism human, read-out: B1R Ant. h [10 μM] % Inhibition. Put shortly: (§1)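 Peak Ca2+-dependent fluorescence in B1R-transfected CHO K1 cells measures antagonism of an EC80 agonist challenge given 10-20 min after compound. Agonist is Lys-Des-Arg9-bradykinin for human, Des-Arg9-bradykinin for rat receptor.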

For assay [2], the target named is T3, bradykinin 1 receptor (B1R) of the rat (Rattus norvegicus, UniProt P97583).
T3 construct: expressed in transfected cells; host or cells: CHO K1 cells
T3 sequence (P97583 1-337): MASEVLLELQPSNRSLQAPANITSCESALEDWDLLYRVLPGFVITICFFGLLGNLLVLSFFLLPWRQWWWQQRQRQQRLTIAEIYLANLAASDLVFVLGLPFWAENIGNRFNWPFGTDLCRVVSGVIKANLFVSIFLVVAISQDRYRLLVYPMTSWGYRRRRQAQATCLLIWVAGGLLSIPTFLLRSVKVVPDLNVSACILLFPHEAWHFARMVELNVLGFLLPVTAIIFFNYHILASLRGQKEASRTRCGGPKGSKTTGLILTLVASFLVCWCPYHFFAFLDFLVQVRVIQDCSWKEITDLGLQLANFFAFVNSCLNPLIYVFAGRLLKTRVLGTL
Kind of assay: Functional investigation on the rat bradykinin 1 receptor (B1R), Ca2+ FLIPR assay in CHO K1 rB1R cells. As to conditions: test substance 10 μM; for inhibition at 10 µM: CHO-K1, B1R antagonism rat, read-out: B1R Ant. r [10 μM] % Inhibition. The assay is classed as cell-based. In outline: as §1

Where [3] appears, read: Table 3, to be read in the same way as Table 1, read-out: μ.
The mark [4] stands for this setting: % inhibition compared with the maximum achievable inhibition.

The structures appear in SMILES notation. Like-named read-outs stand apart in the source and are kept apart here.

T1 sequence (P35372 whole entry): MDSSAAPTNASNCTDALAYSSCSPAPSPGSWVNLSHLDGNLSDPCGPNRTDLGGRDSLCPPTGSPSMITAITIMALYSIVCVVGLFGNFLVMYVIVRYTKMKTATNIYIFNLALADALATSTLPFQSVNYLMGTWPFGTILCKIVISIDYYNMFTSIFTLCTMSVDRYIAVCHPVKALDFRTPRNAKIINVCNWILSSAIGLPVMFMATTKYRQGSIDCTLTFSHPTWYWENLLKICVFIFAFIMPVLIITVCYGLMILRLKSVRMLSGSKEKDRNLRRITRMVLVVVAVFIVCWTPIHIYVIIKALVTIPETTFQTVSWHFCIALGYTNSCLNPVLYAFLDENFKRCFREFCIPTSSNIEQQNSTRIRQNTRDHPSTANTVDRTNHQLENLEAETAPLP

Regarding `COc1cc(C)c(S(=O)(=O)N2CCCCC2COCC(=O)NCC2CCC(C(c3ccccc3)N3CCOCC3)CC2)c(C)c1` (stereo not drawn) [Example 711, 2-((1-(4-methoxy-2,6-dimethylphenylsulfonyl)piperidin-2-yl)methoxy)-N-((4-(morpholino(phenyl)methyl)cyclohexyl)methyl)acetamide], on human μ opiate receptor (setting [3]), the inhibition at 1 µM worked out at 33%. Moreover, the inhibition at 10 µM in assay [1] (Ca2+ FLIPR, CHO K1 hB1R cells) amounted to 86%; in assay [2] (Ca2+ FLIPR, CHO K1 rB1R cells), 103%.

In the case of `O=C(COC1CCN(S(=O)(=O)c2c(Cl)cc(Cl)cc2Cl)C1)NCC1CCC(C(CCc2ccccc2)N2CCCC2)CC1` (stereo not drawn) [Example 723, N-((4-(3-phenyl-1-(pyrrolidin-1-yl)propyl)cyclohexyl)methyl)-2-(1-(2,4,6-trichlorophenylsulfonyl)pyrrolidin-3-yloxy)acetamide], on human μ opiate receptor (setting [3]), the inhibition at 1 µM is 35%. The inhibition at 10 µM in assay [1] (Ca2+ FLIPR, CHO K1 hB1R cells) came out at 90%; in assay [2] (Ca2+ FLIPR, CHO K1 rB1R cells) it was 40%.

For the molecule `COc1cc(C)c(S(=O)(=O)N(C)CCOCC(=O)NC2CCC(C(c3ccccc3)N(C)C)CC2)c(C)c1C` (stereo not drawn) [Example 597, N-[4-(dimethylaminophenylmethyl)-cyclohexyl]-2-{2-[(4-methoxy-2,3,6-trimethylbenzenesulfonyl)-methylamino]-ethoxy}-acetamide], the inhibition at 1 µM at human μ opiate receptor (Table 2, read-out: μ receptor) came to 87%. Moreover, the “B1R Ant. h [10 μM] % Inhibition” value in assay [1] (B1R antagonism human, Ca2+ FLIPR, CHO K1 hB1R cells) stood at 72%. In assay [2] (B1R antagonism rat, Ca2+ FLIPR, CHO K1 rB1R cells), the “B1R Ant. r [10 μM] % Inhibition” value is −22%.

For the molecule `CN(CCOCC(=O)NCC1CCC(C(CCc2ccccc2)N2CCCC2)CC1)S(=O)(=O)c1c(Cl)cccc1Cl` (stereo not drawn) [Example 722, 2-(2-(2,6-dichloro-N-methylphenylsulfonamido)ethoxy)-N-((4-(3-phenyl-1-(pyrrolidin-1-yl)propyl)cyclohexyl)methyl)acetamide], on human μ opiate receptor (setting [3]), the inhibition at 1 µM was found to be 32%. Also, the inhibition at 10 µM is 101% in assay [1] (Ca2+ FLIPR, CHO K1 hB1R cells) and 89% in assay [2] (Ca2+ FLIPR, CHO K1 rB1R cells).

Turning to `COc1cc(C)c(S(=O)(=O)N(C)CCOCC(=O)NCC2CCC(C(CCc3ccccc3)N3CCOCC3)CC2)c(C)c1` (stereo not drawn) [Example 719, 2-(2-(4-methoxy-N,2,6-trimethylphenylsulfonamido)ethoxy)-N-((4-(1-morpholino-3-phenylpropyl)cyclohexyl)methyl)acetamide], the inhibition at 1 µM at human μ opiate receptor (setting [3]) turned out to be 6%. Besides, the inhibition at 10 µM is 103% in assay [1] (Ca2+ FLIPR, CHO K1 hB1R cells) and 101% in assay [2] (Ca2+ FLIPR, CHO K1 rB1R cells).

Turning to `COc1cc(C)c(S(=O)(=O)N(C)CCOCC(=O)N2CCC(C(c3cccc(F)c3)N3CCN(C)CC3)CC2)c(C)c1` (stereo not drawn) [Example 799, N-(2-(2-(4-((3-fluorophenyl)(4-methylpiperazin-1-yl)methyl)piperidin-1-yl)-2-oxoethoxy)ethyl)-4-methoxy-N,2,6-trimethylbenzenesulfonamide], the inhibition at 1 µM on human μ opiate receptor (setting [3]) was found to be 16%. Also, the inhibition at 10 µM in assay [1] (setting [4]) amounted to 110%; in assay [2] (setting [4]) it was 100%.

On to `COc1cc(C)c(S(=O)(=O)N(C)CCOCC(=O)N2CCC(C(c3ccccc3)N3CCN(C)CC3)CC2)c(C)c1` (stereo not drawn) [Example 798, 4-methoxy-N,2,6-trimethyl-N-(2-(2-(4-((4-methylpiperazin-1-yl)(phenyl)methyl)piperidin-1-yl)-2-oxoethoxy)ethyl)benzenesulfonamide], for which, on human μ opiate receptor (setting [3]), the inhibition at 1 µM came to 19%. Moreover, the inhibition at 10 µM in assay [1] (setting [4]) was determined as 110%; in assay [2] (setting [4]) it was 100%.

For `COc1cc(C)c(S(=O)(=O)N2CCCC(OCC(=O)NC3CCC(C(c4ccccc4)N4CCN(C)CC4)CC3)C2)c(C)c1` (stereo not drawn) [Example 708, 2-(1-(4-methoxy-2,6-dimethylphenylsulfonyl)piperidin-3-yloxy)-N-(4-((4-methylpiperazin-1-yl)(phenyl)methyl)cyclohexyl)acetamide], on human μ opiate receptor (setting [3]), the inhibition at 1 µM is 29%. For the same molecule, the inhibition at 10 µM in assay [1] (Ca2+ FLIPR, CHO K1 hB1R cells) was determined as 100%; in assay [2] (Ca2+ FLIPR, CHO K1 rB1R cells), 91%.

On to `CN1CCN(C(Cc2ccccc2)C2CCN(C(=O)COCC3CCc4ccccc4N3S(=O)(=O)c3ccc(Cl)c(Cl)c3)CC2)CC1` (stereo not drawn) [Example 812, 2-((1-(3,4-dichlorophenylsulfonyl)-1,2,3,4-tetrahydroquinolin-2-yl)methoxy)-1-(4-(1-(4-methylpiperazin-1-yl)-2-phenylethyl)piperidin-1-yl)ethanone], for which, at human μ opiate receptor (setting [3]), the inhibition at 1 µM amounted to 37%. The inhibition at 10 µM in assay [1] (setting [4]) was 105%; in assay [2] (setting [4]), 98%.

With `O=C(COC1CCN(S(=O)(=O)c2c(Cl)cc(Cl)cc2Cl)C1)NC1CCC(C(c2ccccc2)N2CCCC2)CC1` (stereo not drawn) [Example 635, N-(4-(phenyl(pyrrolidin-1-yl)methyl)cyclohexyl)-2-(1-(2,4,6-trichlorophenylsulfonyl)pyrrolidin-3-yloxy)acetamide], the inhibition at 1 µM on human μ opiate receptor (setting [3]) came to 78%. In addition, the inhibition at 10 µM in assay [1] (Ca2+ FLIPR, CHO K1 hB1R cells) amounted to 67%; in assay [2] (Ca2+ FLIPR, CHO K1 rB1R cells), 22%.

As to `CN(CCOCC(=O)NCC1CCC(C(CCc2ccccc2)N2CCOCC2)CC1)S(=O)(=O)c1ccc(Cl)cc1Cl` (stereo not drawn) [Example 716, 2-(2-(2,4-dichloro-N-methylphenylsulfonamido)ethoxy)-N-((4-(1-morpholino-3-phenylpropyl)cyclohexyl)methyl)acetamide], the inhibition at 1 µM on human μ opiate receptor (setting [3]) turned out to be 13%. In addition, the inhibition at 10 µM amounted to 59% in assay [1] (Ca2+ FLIPR, CHO K1 hB1R cells) and 31% in assay [2] (Ca2+ FLIPR, CHO K1 rB1R cells).

For `COc1cc(C)c(S(=O)(=O)N2CCC(OCC(=O)NCC3CCC(C(c4ccccc4)N4CCCC4)CC3)C2)c(C)c1` (stereo not drawn) [Example 645, 2-(1-(4-methoxy-2,6-dimethylphenylsulfonyl)pyrrolidin-3-yloxy)-N-((4-(phenyl(pyrrolidin-1-yl)methyl)cyclohexyl)methyl)acetamide], the inhibition at 1 µM on human μ opiate receptor (setting [3]) is 38%. The inhibition at 10 µM came out at 101% in assay [1] (Ca2+ FLIPR, CHO K1 hB1R cells) and 100% in assay [2] (Ca2+ FLIPR, CHO K1 rB1R cells).

Consider `CN(CCOCC(=O)NCC1CCC(C(CCc2ccccc2)N2CCCC2)CC1)S(=O)(=O)c1c(Cl)cc(C(F)(F)F)cc1Cl` (stereo not drawn) [Example 746, 2-(2-(2,6-dichloro-N-methyl-4-(trifluoromethyl)phenylsulfonamido)ethoxy)-N-((4-(3-phenyl-1-(pyrrolidin-1-yl)propyl)cyclohexyl)methyl)acetamide], for which, at human μ opiate receptor (setting [3]), the inhibition at 1 µM was determined as 8%. For the same molecule, the inhibition at 10 µM in assay [1] (Ca2+ FLIPR, CHO K1 hB1R cells) amounted to 98%; in assay [2] (Ca2+ FLIPR, CHO K1 rB1R cells), 51%.

For the molecule `O=C(COC1CCCN(S(=O)(=O)c2c(Cl)cc(Cl)cc2Cl)C1)NCC1CCC(C(CCc2ccccc2)N2CCOCC2)CC1` (stereo not drawn) [Example 747, N-((4-(1-morpholino-3-phenylpropyl)cyclohexyl)methyl)-2-(1-(2,4,6-trichlorophenylsulfonyl)piperidin-3-yloxy)acetamide], at human μ opiate receptor (setting [3]), the inhibition at 1 µM was found to be 23%. The inhibition at 10 µM in assay [1] (Ca2+ FLIPR, CHO K1 hB1R cells) came to 24%; in assay [2] (Ca2+ FLIPR, CHO K1 rB1R cells) it was 32%.

As for `COc1cc(C)c(S(=O)(=O)N2CCC(OCC(=O)NC3CCC(C(CCc4ccccc4)N4CCCCC4)CC3)C2)c(C)c1` (stereo not drawn) [Example 669, 2-(1-(4-methoxy-2,6-dimethylphenylsulfonyl)pyrrolidin-3-yloxy)-N-(4-(3-phenyl-1-(piperidin-1-yl)propyl)cyclohexyl)acetamide], the inhibition at 1 µM at human μ opiate receptor (setting [3]) stood at 20%. In addition, the inhibition at 10 µM in assay [1] (Ca2+ FLIPR, CHO K1 hB1R cells) amounted to 103%; in assay [2] (Ca2+ FLIPR, CHO K1 rB1R cells) it was 95%.

On to `CN(CCOCC(=O)NCC1CCC(C(CCc2ccccc2)N2CCOCC2)CC1)S(=O)(=O)c1c(Cl)cccc1Cl` (stereo not drawn) [Example 721, 2-(2-(2,6-dichloro-N-methylphenylsulfonamido)ethoxy)-N-((4-(1-morpholino-3-phenylpropyl)cyclohexyl)methyl)acetamide], for which, on human μ opiate receptor (setting [3]), the inhibition at 1 µM was determined as 7%. For the same molecule, the inhibition at 10 µM amounted to 94% in assay [1] (Ca2+ FLIPR, CHO K1 hB1R cells) and 57% in assay [2] (Ca2+ FLIPR, CHO K1 rB1R cells).
